{"source": "ChEMBL document CHEMBL4819085", "about": "“Dipyridyl-substituted thiosemicarbazone as a potent broad-spectrum inhibitor of metallo-β-lactamases” (Bioorg Med Chem, 2021)", "key": {"Klebsiella pneumoniae [1]": {"system": "Klebsiella pneumoniae", "test": "Antibacterial activity against Klebsiella pneumoniae assessed as fractional inhibitory concentration index incubated for 24 hrs in presence of meropenem by checkerboard assay", "format": "functional"}, "Staphylococcus aureus": {"system": "Staphylococcus aureus", "test": "Antibacterial activity against methicillin-resistant Staphylococcus aureus assessed as reduction in bacterial growth incubated for 24 hrs by broth microdilution method", "format": "functional"}, "Klebsiella pneumoniae [2]": {"system": "Klebsiella pneumoniae", "test": "Potentiation of meropenem-induced antibacterial activity against Klebsiella pneumoniae assessed as fold reduction in meropenem MIC incubated for 24 hrs by broth microdilution method relative to meropenem alone", "format": "functional"}, "Escherichia coli [3]": {"system": "Escherichia coli", "test": "Antibacterial activity against Escherichia coli producing NDM-1 assessed as zone of inhibition in presence of meropenem (reference value: 23.5 millimeter)", "format": "functional"}, "Escherichia coli [4]": {"system": "Escherichia coli", "test": "Inhibition of Escherichia coli L1 assessed as potentiation of meropenem-induced antibacterial activity by measuring meropenem MIC incubated for 24 hrs by broth microdilution method"}, "Escherichia coli [5]": {"system": "Escherichia coli", "test": "Inhibition of Escherichia coli NDM-1 assessed as bacterial growth rate in presence of ZnCl2 and meropenem relative to control", "design": "scale not given: the % may be the effect or the level left"}, "Escherichia coli [6]": {"system": "Escherichia coli", "test": "Inhibition of Escherichia coli L1 assessed as potentiation of meropenem-induced antibacterial activity by measuring fold reduction in meropenem MIC up to 8 ug/ml incubated for 24 hrs by broth microdilution method relative to meropenem alone", "conditions": "dose microg/ml <=8, time 24.0 hrs"}, "Escherichia coli [7]": {"system": "Escherichia coli", "test": "Potentiation of meropenem-induced antibacterial activity against Escherichia coli 01 assessed as fold reduction in meropenem MIC incubated for 24 hrs by broth microdilution method relative to meropenem alone", "format": "functional"}, "[8]": {"test": "(§1) Inhibition of bacterial ImiS expressed in Escherichia coli BL21 (DE3) using meropenem as substrate incubated for 1 hr by spectrometry analysis", "design": "species or system Bacteria"}, "Bacteria [9]": {"system": "Bacteria", "test": "as §1"}, "Pseudomonas aeruginosa": {"system": "Pseudomonas aeruginosa", "test": "Antibacterial activity against Carbapenem-resistant Pseudomonas aeruginosa assessed as reduction in bacterial growth incubated for 24 hrs by broth microdilution method", "format": "functional"}, "Escherichia coli [10]": {"system": "Escherichia coli", "test": "Antibacterial activity against Escherichia coli 24 assessed as reduction in bacterial growth incubated for 24 hrs by broth microdilution method", "format": "functional"}, "[11]": {"test": "Binding affinity to Zn2+ ion assessed as UV absorption peak at 325 nm at 50 uM incubated for 5 mins in presence of ZnCl2 by spectrometry analysis"}, "Escherichia coli [12]": {"system": "Escherichia coli", "test": "Bactericidal activity against Escherichia coli producing NDM-1 assessed as reduction in bacterial viability upto 64 ug/ml incubated for 12 hrs by time kill assay", "format": "functional", "conditions": "dose microg/ml <=64"}, "Escherichia coli [13]": {"system": "Escherichia coli", "test": "Potentiation of meropenem-induced antibacterial activity against Escherichia coli 01 assessed as meropenem MIC incubated for 24 hrs by broth microdilution method", "format": "functional"}, "Bacteria [14]": {"system": "Bacteria", "test": "Inhibition of bacterial ImiS expressed in Escherichia coli BL21 (DE3) at 20 uM using meropenem as substrate incubated for 1 hr by spectrometry analysis relative to control"}, "Escherichia coli [15]": {"system": "Escherichia coli", "test": "Inhibition of Escherichia coli IMP-1 assessed as potentiation of meropenem-induced antibacterial activity by measuring fold reduction in meropenem MIC up to 8 ug/ml incubated for 24 hrs by broth microdilution method relative to meropenem alone", "conditions": "dose microg/ml <=8, time 24.0 hrs"}, "Escherichia coli [16]": {"system": "Escherichia coli", "test": "Potentiation of meropenem-induced antibacterial activity against Escherichia coli 06 assessed as meropenem MIC incubated for 24 hrs by broth microdilution method", "format": "functional"}, "Escherichia coli [17]": {"system": "Escherichia coli", "test": "Antibacterial activity against Escherichia coli producing IMP-1 assessed as fractional inhibitory concentration index incubated for 24 hrs in presence of meropenem by checkerboard assay", "format": "functional, organism-based"}, "Escherichia coli [18]": {"system": "Escherichia coli", "test": "Antibacterial activity against Escherichia coli producing NDM-1 assessed as fractional inhibitory concentration index incubated for 24 hrs in presence of meropenem by checkerboard assay", "format": "functional"}, "Escherichia coli [19]": {"system": "Escherichia coli", "test": "Potentiation of meropenem-induced antibacterial activity against Escherichia coli 04 assessed as meropenem MIC incubated for 24 hrs by broth microdilution method", "format": "functional"}, "Klebsiella pneumoniae [20]": {"system": "Klebsiella pneumoniae", "test": "In vivo antibacterial activity against Klebsiella pneumoniae producing NDM-1 infected in mouse assessed as reduction in bacterial load in liver at 2 mg/kg, ip", "format": "functional, organism-based"}, "Escherichia coli [21]": {"system": "Escherichia coli", "test": "Potentiation of meropenem-induced antibacterial activity against Escherichia coli 24 assessed as meropenem MIC incubated for 24 hrs by broth microdilution method", "format": "functional"}}, "note": "Active and inactive are the calls of the source. The rule behind the calls is not given here.", "data": [{"smiles": "CN(C(=S)NN=C(c1ccccn1)c1ccccn1)C1CCCCC1", "values": [{"measurement": "FIC", "setting": "Klebsiella pneumoniae [1]", "result": 0.313}, {"measurement": "MIC", "setting": "Staphylococcus aureus", "result": 32, "unit": "µg/mL"}, {"measurement": "fold change (FC)", "setting": "Klebsiella pneumoniae [2]", "result": 8}, {"measurement": "inhibition zone (IZ)", "setting": "Escherichia coli [3]", "result": 30.1, "unit": "mm"}, {"measurement": "MIC", "setting": "Escherichia coli [4]", "result": 32, "unit": "µg/mL"}, {"measurement": "Activity", "setting": "Escherichia coli [5]", "result": 65, "unit": "%"}, {"measurement": "fold change (FC)", "setting": "Escherichia coli [6]", "result": 4}, {"measurement": "fold change (FC)", "setting": "Escherichia coli [7]", "result": 2}, {"measurement": "IC50", "setting": "[8]", "result": 0.075, "unit": "µM"}, {"measurement": "inhibition", "setting": "Bacteria [9]", "result": "Dose-Dependent Effect"}, {"measurement": "MIC", "setting": "Pseudomonas aeruginosa", "result": 16, "unit": "µg/mL"}, {"measurement": "MIC", "setting": "Escherichia coli [10]", "result": 16, "unit": "µg/mL"}, {"measurement": "Activity", "setting": "[11]", "result": "Active"}, {"measurement": "inhibition (INH)", "setting": "Escherichia coli [12]", "result": 99, "unit": "%"}, {"measurement": "MIC", "setting": "Escherichia coli [13]", "result": 32, "unit": "µg/mL"}, {"measurement": "inhibition", "setting": "Bacteria [14]", "result": "> 90", "unit": "%"}, {"measurement": "fold change (FC)", "setting": "Escherichia coli [15]", "result": 8}, {"measurement": "MIC", "setting": "Escherichia coli [16]", "result": 64, "unit": "µg/mL"}, {"measurement": "Activity", "setting": "Escherichia coli [17]", "result": "inactive"}, {"measurement": "FIC", "setting": "Escherichia coli [18]", "result": 0.313}, {"measurement": "MIC", "setting": "Escherichia coli [19]", "result": 16, "unit": "µg/mL"}, {"measurement": "inhibition", "setting": "Klebsiella pneumoniae [20]", "result": "inactive"}, {"measurement": "MIC", "setting": "Escherichia coli [21]", "result": 16, "unit": "µg/mL"}]}]}
